Test results published in ChEMBL document CHEMBL4507257, “Data for DCP probe ABT-100” (2021).

Legend:
[1] = tested on: Receptor-type tyrosine-protein kinase FLT3 (Homo sapiens), P36888 [K663Q]; details: Compound concentration 1000.0 nM
[2] = target: Vascular endothelial growth factor receptor 1 (Homo sapiens) (UniProt P17948); details: Compound concentration 1000.0 nM
[3] = target: Serine/threonine-protein kinase WNK1 (Homo sapiens) (UniProt Q9H4A3); details: Compound concentration 1000.0 nM
[4] = target: Serine/threonine-protein kinase Nek2 (Homo sapiens) (UniProt P51955); details: Compound concentration 1000.0 nM
[5] = target: Dual specificity testis-specific protein kinase 1 (Homo sapiens) (UniProt Q15569); details: Compound concentration 1000.0 nM
[6] = target: Homeodomain-interacting protein kinase 4 (Homo sapiens) (UniProt Q8NE63); details: Compound concentration 1000.0 nM
[7] = target: cAMP-dependent protein kinase catalytic subunit alpha (Homo sapiens) (UniProt P17612); details: Compound concentration 1000.0 nM
[8] = tested on: Tyrosine-protein kinase ABL1 (Homo sapiens), P00519 [F317L]; details: Compound concentration 1000.0 nM
[9] = target: Inhibitor of nuclear factor kappa-B kinase subunit epsilon (Homo sapiens) (UniProt Q14164); details: Compound concentration 1000.0 nM
[10] = target: Calcium/calmodulin-dependent protein kinase type II subunit beta (Homo sapiens) (UniProt Q13554); details: Compound concentration 1000.0 nM
[11] = target: Serine/threonine-protein kinase Nek4 (Homo sapiens) (UniProt P51957); details: Compound concentration 1000.0 nM
Chain of Serine/threonine-protein kinase Nek4 (Homo sapiens) (P51957 whole entry, looked up): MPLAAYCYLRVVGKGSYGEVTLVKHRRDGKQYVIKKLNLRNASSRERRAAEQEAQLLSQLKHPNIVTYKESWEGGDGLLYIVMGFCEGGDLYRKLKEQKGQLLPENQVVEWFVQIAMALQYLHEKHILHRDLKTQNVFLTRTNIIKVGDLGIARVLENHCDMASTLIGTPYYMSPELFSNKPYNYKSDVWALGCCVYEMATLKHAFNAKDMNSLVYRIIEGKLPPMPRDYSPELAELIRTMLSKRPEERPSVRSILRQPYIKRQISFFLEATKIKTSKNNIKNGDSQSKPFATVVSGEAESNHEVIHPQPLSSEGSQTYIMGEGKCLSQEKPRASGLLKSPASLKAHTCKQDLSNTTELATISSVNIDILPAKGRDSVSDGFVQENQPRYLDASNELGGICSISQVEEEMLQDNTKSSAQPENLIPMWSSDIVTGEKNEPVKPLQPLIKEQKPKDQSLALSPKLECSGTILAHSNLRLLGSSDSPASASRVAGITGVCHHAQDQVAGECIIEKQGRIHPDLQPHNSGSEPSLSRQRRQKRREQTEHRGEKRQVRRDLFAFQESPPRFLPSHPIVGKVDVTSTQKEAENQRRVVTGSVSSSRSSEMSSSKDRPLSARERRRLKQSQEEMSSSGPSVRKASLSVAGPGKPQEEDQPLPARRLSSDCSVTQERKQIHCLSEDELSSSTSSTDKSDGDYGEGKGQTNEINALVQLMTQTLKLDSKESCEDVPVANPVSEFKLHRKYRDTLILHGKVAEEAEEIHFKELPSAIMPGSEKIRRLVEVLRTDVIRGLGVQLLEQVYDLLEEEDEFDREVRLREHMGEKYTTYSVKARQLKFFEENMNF

[12] = target: Bone morphogenetic protein receptor type-2 (Homo sapiens) (UniProt Q13873); details: Compound concentration 1000.0 nM
[13] = target: Serine/threonine-protein kinase PknB (Mycobacterium tuberculosis) (UniProt P9WI81); details: Compound concentration 1000.0 nM
[14] = target: Tyrosine-protein kinase receptor UFO (Homo sapiens) (UniProt P30530); details: Compound concentration 1000.0 nM
[15] = target: Mitogen-activated protein kinase 9 (Homo sapiens) (UniProt P45984); details: Compound concentration 1000.0 nM
Rattus norvegicus = species on record: Rattus norvegicus; details: Compound concentration 10.0 uM
[16] = target: Histamine H2 receptor (Homo sapiens) (UniProt P25021); details: Compound concentration 10.0 uM
[17] = target: Ribosomal protein S6 kinase alpha-3 (Homo sapiens) (UniProt P51812); details: Compound concentration 1000.0 nM
[18] = target: Mitogen-activated protein kinase kinase kinase 11 (Homo sapiens) (UniProt Q16584); details: Compound concentration 1000.0 nM
Chain of Mitogen-activated protein kinase kinase kinase 11 (Homo sapiens) (Q16584 whole entry, looked up): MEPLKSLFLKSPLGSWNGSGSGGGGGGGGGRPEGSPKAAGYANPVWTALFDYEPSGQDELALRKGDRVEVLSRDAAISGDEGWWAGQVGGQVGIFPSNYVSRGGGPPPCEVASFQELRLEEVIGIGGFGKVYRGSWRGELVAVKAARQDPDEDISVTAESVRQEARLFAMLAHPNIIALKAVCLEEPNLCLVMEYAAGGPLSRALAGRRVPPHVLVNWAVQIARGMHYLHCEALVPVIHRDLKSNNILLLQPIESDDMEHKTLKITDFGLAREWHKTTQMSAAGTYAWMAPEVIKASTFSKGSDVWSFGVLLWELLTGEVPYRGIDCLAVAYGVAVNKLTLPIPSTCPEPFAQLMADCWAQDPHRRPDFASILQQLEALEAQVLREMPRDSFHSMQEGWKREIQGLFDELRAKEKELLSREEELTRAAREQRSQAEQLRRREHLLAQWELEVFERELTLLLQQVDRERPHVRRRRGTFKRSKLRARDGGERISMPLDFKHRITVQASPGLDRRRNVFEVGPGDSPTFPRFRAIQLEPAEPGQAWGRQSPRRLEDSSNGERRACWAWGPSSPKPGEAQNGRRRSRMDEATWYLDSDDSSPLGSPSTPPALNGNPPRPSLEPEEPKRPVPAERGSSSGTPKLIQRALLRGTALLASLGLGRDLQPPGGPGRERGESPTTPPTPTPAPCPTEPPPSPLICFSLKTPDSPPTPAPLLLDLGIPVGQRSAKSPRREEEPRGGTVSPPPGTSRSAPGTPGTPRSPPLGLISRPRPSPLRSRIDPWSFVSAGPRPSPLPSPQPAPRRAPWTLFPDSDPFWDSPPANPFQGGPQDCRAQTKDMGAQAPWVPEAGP

[19] = target: Megakaryocyte-associated tyrosine-protein kinase (Homo sapiens) (UniProt P42679); details: Compound concentration 1000.0 nM
Chain of Megakaryocyte-associated tyrosine-protein kinase (Homo sapiens) (P42679 whole entry): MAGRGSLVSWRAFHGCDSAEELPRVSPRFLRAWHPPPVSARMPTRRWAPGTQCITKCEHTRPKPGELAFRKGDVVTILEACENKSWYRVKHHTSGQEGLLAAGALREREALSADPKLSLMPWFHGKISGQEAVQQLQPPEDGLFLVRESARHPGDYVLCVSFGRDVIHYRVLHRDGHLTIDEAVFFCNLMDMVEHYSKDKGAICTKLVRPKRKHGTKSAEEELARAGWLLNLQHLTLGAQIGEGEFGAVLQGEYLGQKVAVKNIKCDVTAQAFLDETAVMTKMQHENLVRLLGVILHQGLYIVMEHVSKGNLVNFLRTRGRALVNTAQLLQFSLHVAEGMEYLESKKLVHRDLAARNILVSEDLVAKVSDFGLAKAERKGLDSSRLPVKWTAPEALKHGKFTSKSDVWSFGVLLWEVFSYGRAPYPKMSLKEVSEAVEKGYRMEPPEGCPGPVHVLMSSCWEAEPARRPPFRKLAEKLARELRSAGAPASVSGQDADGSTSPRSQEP

[20] = target: Serine/threonine-protein kinase TAO3 (Homo sapiens) (UniProt Q9H2K8); details: Compound concentration 1000.0 nM
[21] = target: Epidermal growth factor receptor (Homo sapiens) (UniProt P00533); details: Compound concentration 1000.0 nM
[22] = target: Phosphatidylinositol 4-phosphate 3-kinase C2 domain-containing subunit beta (Homo sapiens) (UniProt O00750); details: Compound concentration 1000.0 nM
[23] = target: Cyclin-dependent kinase 2 (Homo sapiens) (UniProt P24941); details: Compound concentration 1000.0 nM
[24] = target: MAP/microtubule affinity-regulating kinase 3 (Homo sapiens) (UniProt P27448); details: Compound concentration 1000.0 nM
[25] = target: Protein kinase C theta type (Homo sapiens) (UniProt Q04759); details: Compound concentration 1000.0 nM
Chain of Protein kinase C theta type (Homo sapiens) (Q04759 whole entry, looked up): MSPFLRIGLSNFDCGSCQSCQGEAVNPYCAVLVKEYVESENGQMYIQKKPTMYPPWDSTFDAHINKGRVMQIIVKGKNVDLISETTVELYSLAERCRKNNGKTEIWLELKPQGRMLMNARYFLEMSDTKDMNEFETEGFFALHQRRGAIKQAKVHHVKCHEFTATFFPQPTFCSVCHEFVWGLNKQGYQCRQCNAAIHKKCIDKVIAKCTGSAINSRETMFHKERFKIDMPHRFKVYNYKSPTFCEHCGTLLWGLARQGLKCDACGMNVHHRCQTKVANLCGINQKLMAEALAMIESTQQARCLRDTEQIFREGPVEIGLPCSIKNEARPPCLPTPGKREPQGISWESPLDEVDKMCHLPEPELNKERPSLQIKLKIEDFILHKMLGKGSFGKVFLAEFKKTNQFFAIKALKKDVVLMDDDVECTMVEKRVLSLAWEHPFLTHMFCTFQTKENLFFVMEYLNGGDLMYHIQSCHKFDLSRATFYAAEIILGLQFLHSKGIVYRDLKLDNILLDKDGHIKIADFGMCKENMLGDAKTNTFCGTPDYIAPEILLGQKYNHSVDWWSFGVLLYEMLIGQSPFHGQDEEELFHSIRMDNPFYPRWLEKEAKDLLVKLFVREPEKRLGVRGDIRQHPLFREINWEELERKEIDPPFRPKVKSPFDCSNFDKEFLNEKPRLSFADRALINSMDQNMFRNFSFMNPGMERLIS

[26] = target: Serine/threonine-protein kinase B-raf (Homo sapiens) (UniProt P15056); details: Compound concentration 1000.0 nM
[27] = target: Serine/threonine-protein kinase ULK1 (Homo sapiens) (UniProt O75385); details: Compound concentration 1000.0 nM
Chain of Serine/threonine-protein kinase ULK1 (Homo sapiens) (O75385 whole entry): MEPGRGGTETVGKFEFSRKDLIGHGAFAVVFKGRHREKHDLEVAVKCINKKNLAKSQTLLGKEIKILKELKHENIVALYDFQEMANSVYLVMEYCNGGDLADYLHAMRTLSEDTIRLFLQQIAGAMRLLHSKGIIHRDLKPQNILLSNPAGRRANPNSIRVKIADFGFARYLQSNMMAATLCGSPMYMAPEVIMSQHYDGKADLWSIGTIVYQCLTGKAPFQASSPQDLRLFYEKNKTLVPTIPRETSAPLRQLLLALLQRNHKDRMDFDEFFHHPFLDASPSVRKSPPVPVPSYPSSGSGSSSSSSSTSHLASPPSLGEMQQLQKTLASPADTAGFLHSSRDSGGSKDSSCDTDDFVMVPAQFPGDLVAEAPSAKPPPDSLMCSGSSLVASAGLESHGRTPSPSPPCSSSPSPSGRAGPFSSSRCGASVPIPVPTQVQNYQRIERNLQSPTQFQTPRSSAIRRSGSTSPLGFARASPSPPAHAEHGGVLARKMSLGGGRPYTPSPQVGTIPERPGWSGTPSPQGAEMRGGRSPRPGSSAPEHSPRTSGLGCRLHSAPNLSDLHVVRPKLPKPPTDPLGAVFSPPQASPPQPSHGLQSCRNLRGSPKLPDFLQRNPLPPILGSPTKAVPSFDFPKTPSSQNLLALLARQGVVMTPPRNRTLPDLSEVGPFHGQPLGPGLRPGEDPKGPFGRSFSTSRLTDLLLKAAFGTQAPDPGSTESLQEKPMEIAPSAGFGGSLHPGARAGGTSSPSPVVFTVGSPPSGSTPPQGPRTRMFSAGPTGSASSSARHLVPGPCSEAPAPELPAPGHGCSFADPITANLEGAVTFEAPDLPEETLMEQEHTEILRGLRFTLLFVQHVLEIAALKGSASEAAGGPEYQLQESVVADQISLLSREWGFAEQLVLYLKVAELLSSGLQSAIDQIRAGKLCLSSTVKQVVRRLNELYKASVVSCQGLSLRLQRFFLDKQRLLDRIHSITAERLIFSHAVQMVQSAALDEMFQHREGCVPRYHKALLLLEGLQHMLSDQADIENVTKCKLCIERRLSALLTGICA

[28] = target: Death-associated protein kinase 2 (Homo sapiens) (UniProt Q9UIK4); details: Compound concentration 1000.0 nM
[29] = target: cGMP-dependent protein kinase 2 (Homo sapiens) (UniProt Q13237); details: Compound concentration 1000.0 nM
[30] = target: Phosphatidylinositol 5-phosphate 4-kinase type-2 gamma (Homo sapiens) (UniProt Q8TBX8); details: Compound concentration 1000.0 nM
[31] = target: Tyrosine-protein kinase Fgr (Homo sapiens) (UniProt P09769); details: Compound concentration 1000.0 nM
[32] = target: Hepatocyte growth factor receptor (Homo sapiens) (UniProt P08581); details: Compound concentration 1000.0 nM
[33] = target: Tyrosine-protein kinase JAK3 (Homo sapiens) (UniProt P52333); details: Compound concentration 1000.0 nM
[34] = target: Sodium-dependent noradrenaline transporter (Homo sapiens) (UniProt P23975); details: Compound concentration 10.0 uM
Chain of Sodium-dependent noradrenaline transporter (Homo sapiens) (P23975 whole entry): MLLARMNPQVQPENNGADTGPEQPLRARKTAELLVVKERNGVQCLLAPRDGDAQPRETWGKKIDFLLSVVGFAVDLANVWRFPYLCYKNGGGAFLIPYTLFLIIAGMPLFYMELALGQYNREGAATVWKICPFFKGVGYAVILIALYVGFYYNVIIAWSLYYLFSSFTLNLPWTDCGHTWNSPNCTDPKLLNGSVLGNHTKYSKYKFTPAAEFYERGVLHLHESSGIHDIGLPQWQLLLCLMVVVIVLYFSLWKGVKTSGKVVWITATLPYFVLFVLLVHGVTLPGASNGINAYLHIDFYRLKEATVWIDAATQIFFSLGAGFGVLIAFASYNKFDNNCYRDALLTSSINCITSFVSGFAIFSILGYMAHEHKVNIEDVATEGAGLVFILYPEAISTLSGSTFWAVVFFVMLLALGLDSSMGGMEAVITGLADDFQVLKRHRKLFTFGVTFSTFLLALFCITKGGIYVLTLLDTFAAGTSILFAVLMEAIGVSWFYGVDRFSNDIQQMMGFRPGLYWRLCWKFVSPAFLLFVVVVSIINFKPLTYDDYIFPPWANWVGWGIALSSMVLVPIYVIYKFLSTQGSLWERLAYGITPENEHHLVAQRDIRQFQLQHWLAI

[35] = target: Mitogen-activated protein kinase 12 (Homo sapiens) (UniProt P53778); details: Compound concentration 1000.0 nM
Chain of Mitogen-activated protein kinase 12 (Homo sapiens) (P53778 whole entry): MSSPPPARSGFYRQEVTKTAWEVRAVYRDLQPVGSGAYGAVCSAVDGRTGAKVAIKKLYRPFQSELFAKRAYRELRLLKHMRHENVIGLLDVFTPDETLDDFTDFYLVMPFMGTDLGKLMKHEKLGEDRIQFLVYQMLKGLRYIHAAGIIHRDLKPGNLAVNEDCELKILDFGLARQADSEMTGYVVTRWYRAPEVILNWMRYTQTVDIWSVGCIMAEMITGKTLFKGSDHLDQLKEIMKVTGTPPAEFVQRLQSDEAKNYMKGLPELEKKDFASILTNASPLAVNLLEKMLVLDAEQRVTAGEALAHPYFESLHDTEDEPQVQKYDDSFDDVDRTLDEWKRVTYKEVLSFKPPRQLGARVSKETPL

[36] = target: 5-hydroxytryptamine receptor 1B (Homo sapiens) (UniProt P28222); details: Compound concentration 10.0 uM
[37] = target: 3-phosphoinositide-dependent protein kinase 1 (Homo sapiens) (UniProt O15530); details: Compound concentration 1000.0 nM
[38] = tested on: ALK tyrosine kinase receptor (Homo sapiens), Q9UM73 [C1156Y]; details: Compound concentration 1000.0 nM
[39] = tested on: Mast/stem cell growth factor receptor Kit (Homo sapiens), P10721 [A829P]; details: Compound concentration 1000.0 nM
[40] = target: Serine/threonine-protein kinase WNK2 (Homo sapiens) (UniProt Q9Y3S1); details: Compound concentration 1000.0 nM
[41] = target: Ribosomal protein S6 kinase alpha-2 (Homo sapiens) (UniProt Q15349); details: Compound concentration 1000.0 nM
[42] = tested on: Phosphatidylinositol 4,5-bisphosphate 3-kinase catalytic subunit alpha isoform (Homo sapiens), P42336 [M1043I]; details: Compound concentration 1000.0 nM
[43] = tested on: Receptor-type tyrosine-protein kinase FLT3 (Homo sapiens), P36888 [D835H]; details: Compound concentration 1000.0 nM
[44] = target: Atypical kinase COQ8A, mitochondrial (Homo sapiens) (UniProt Q8NI60); details: Compound concentration 1000.0 nM

Cn1cncc1[C@@](O)(COc1ccc(C#N)cc1-c1ccc(OC(F)(F)F)cc1)c1ccc(C#N)cc1 [A-108]
inactive: residual activity [1] 64% | residual activity [2] 83% | residual activity [3] 100% | residual activity [4] 95% | residual activity [5] 92% | residual activity [6] 100% | residual activity [7] 94% | residual activity [8] 100% | residual activity [9] 100% | residual activity [10] 90% | residual activity [11] 90% | residual activity [12] 100% | residual activity [13] 78% | residual activity [14] 100% | residual activity [15] 92% | inhibition (Rattus norvegicus) 9.56% | inhibition [16] 5.38% | residual activity [17] 98% | residual activity [18] 100% | residual activity [19] 100% | residual activity [20] 100% | residual activity [21] 100% | residual activity [22] 95% | residual activity [23] 89% | residual activity [24] 93% | residual activity [25] 100% | residual activity [26] 100% | residual activity [27] 95% | residual activity [28] 97% | residual activity [29] 87% | residual activity [30] 96% | residual activity [31] 100% | residual activity [32] 94% | residual activity [33] 100% | inhibition [34] 5.18% | residual activity [35] 100% | inhibition [36] 3.34% | residual activity [37] 96% | residual activity [38] 98% | residual activity [39] 100% | residual activity [40] 84% | residual activity [41] 98% | residual activity [42] 72% | residual activity [43] 67% | residual activity [44] 100%

Cn1cncc1[C@](O)(COc1ccc(C#N)cc1-c1ccc(OC(F)(F)F)cc1)c1ccc(C#N)cc1 [ABT-100]
inactive: residual activity [1] 90% | residual activity [2] 98% | residual activity [3] 100% | residual activity [4] 100% | residual activity [5] 100% | residual activity [6] 86% | residual activity [7] 81% | residual activity [8] 100% | residual activity [9] 100% | residual activity [10] 85% | residual activity [11] 100% | residual activity [12] 89% | residual activity [13] 97% | residual activity [14] 100% | residual activity [15] 89% | inhibition (Rattus norvegicus) -1.86% | inhibition [16] 14.4% | residual activity [17] 100% | residual activity [18] 86% | residual activity [19] 98% | residual activity [20] 87% | residual activity [21] 80% | residual activity [22] 89% | residual activity [23] 95% | residual activity [24] 100% | residual activity [25] 79% | residual activity [26] 84% | residual activity [27] 100% | residual activity [28] 82% | residual activity [29] 100% | residual activity [30] 87% | residual activity [31] 100% | residual activity [32] 74% | residual activity [33] 72% | inhibition [34] 21.7% | residual activity [35] 100% | inhibition [36] -4.28% | residual activity [37] 87% | residual activity [38] 92% | residual activity [39] 79% | residual activity [40] 67% | residual activity [41] 85% | residual activity [42] 100% | residual activity [43] 84% | residual activity [44] 92%
